Our source for the GI50 and TGI values is PubChem BioAssay (NCI).

Molecules are shown by their SMILES. Values joined by “and” are separate entries in the source; they are usually repeats but may differ in a detail not shown here. Identical values can stand only once.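 Five compound concentrations were applied to cells in 96-well plates for 48 hours; endpoints were derived by simple linear interpolation of the resulting dose-response curve. GI50 = concentration required for 50% inhibition of growth. At the TGI there is no net growth.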

Some test systems named below: UACC-257 melanoma; CCRF-CEM leukemia; OVCAR-3 ovarian; HOP-62 NSCLC; SK-OV-3 ovarian; A549 NSCLC; SNB-19 CNS; HCT-116 colon; OVCAR-4 ovarian; HT29 colon.
Common to all, as to assay: DTP human tumour cell line panel, 48 h

A word on the GI50: it is the concentration giving 50% growth inhibition. Broadly, the TGI is the concentration giving total growth inhibition. A lower TGI goes with greater sensitivity of the cells. On to `C[CH2][Sn]([CH2]C)([O]C(=O)C(OC(C)=O)c1ccccc1)[O]C(=O)C(OC(C)=O)c1ccccc1` (centres undefined), for which the GI50 with UACC-257 melanoma was 16.7 µM; with CCRF-CEM leukemia, 1.93 µM; in the assay on OVCAR-3 ovarian, above 100 µM; in the assay on HOP-62 NSCLC it was above 100 µM; in the assay on SK-OV-3 ovarian it was above 100 µM; in the assay on A549 NSCLC it was above 100 µM. Also, the GI50 with SNB-19 CNS was 52 µM; in the assay on HCT-116 colon, 92.6 µM; with OVCAR-4 ovarian, 50 µM; in the assay on HT29 colon it was 46.7 µM. In addition, the TGI with UACC-257 melanoma is 33.4 µM; with CCRF-CEM leukemia, 6.15 µM; in the assay with OVCAR-3 ovarian it was above 100 µM; in the assay on HOP-62 NSCLC, above 100 µM; with SK-OV-3 ovarian it was above 100 µM; in the assay on A549 NSCLC it was above 100 µM. Also, the TGI in the assay on SNB-19 CNS, with HCT-116 colon, with OVCAR-4 ovarian and with HT29 colon was above 100 µM throughout.
For the compound `O=[N+]([O-])c1cccc([As]=[As]c2cccc([N+](=O)[O-])c2)c1` (centres undefined), the GI50 in the assay on UACC-257 melanoma was 0.122 µM; in the assay on CCRF-CEM leukemia it was 0.0273 µM; with OVCAR-3 ovarian, 0.0499 µM; in the assay with HOP-62 NSCLC it was 0.159 µM; in the assay on SK-OV-3 ovarian, 0.177 µM; with A549 NSCLC it was 0.178 µM. Moreover, the GI50 in the assay on SNB-19 CNS is 0.145 µM; with HCT-116 colon it was 0.0627 µM; in the assay with OVCAR-4 ovarian it was 0.0921 µM; in the assay on HT29 colon, 0.159 µM. The TGI is 0.252 µM in the assay with UACC-257 melanoma; 0.112 µM with CCRF-CEM leukemia; 0.16 µM in the assay with OVCAR-3 ovarian; 0.301 µM in the assay with HOP-62 NSCLC; 0.317 µM with SK-OV-3 ovarian; 0.351 µM in the assay with A549 NSCLC. The total growth inhibition concentration (TGI) in the assay on SNB-19 CNS came to 0.279 µM; in the assay on HCT-116 colon, 0.181 µM; in the assay with OVCAR-4 ovarian it was 0.308 µM; in the assay on HT29 colon, 0.329 µM.
Regarding `O=C(Nc1ccc(Cl)cc1)Nc1ccc(Nc2nncc3ccccc23)cc1`, the GI50 in the assay with UACC-257 melanoma is 3.41 µM; in the assay on CCRF-CEM leukemia it was 2.57 µM; in the assay on OVCAR-3 ovarian, 2.57 µM; in the assay with HOP-62 NSCLC, 3 µM; in the assay on SK-OV-3 ovarian, 3.05 µM; with A549 NSCLC, 3.03 µM. The GI50 in the assay on SNB-19 CNS is 3.67 µM; with HCT-116 colon, 2.46 µM; with OVCAR-4 ovarian it was 1.97 µM; in the assay with HT29 colon, 2.65 µM. The TGI was 10.8 µM with UACC-257 melanoma; 17 µM in the assay on CCRF-CEM leukemia; 10.3 µM in the assay with OVCAR-3 ovarian; 14.9 µM in the assay on HOP-62 NSCLC; 17.7 µM in the assay on SK-OV-3 ovarian; 19.3 µM in the assay with A549 NSCLC. In addition, the TGI with SNB-19 CNS amounted to 19 µM; with HCT-116 colon it was 12 µM; in the assay with OVCAR-4 ovarian it was 8.17 µM; in the assay on HT29 colon, 14.1 µM.
With `CC(=O)C1C(=O)C(=O)N(c2ccccc2C(C)C)C1=O` (centres undefined), the TGI in the assay with UACC-257 melanoma, in the assay on CCRF-CEM leukemia, in the assay with OVCAR-3 ovarian, in the assay on HOP-62 NSCLC, in the assay on SK-OV-3 ovarian and in the assay on A549 NSCLC was above 100 µM in each case. For the same compound, the TGI with SNB-19 CNS, with HCT-116 colon, in the assay on OVCAR-4 ovarian and in the assay on HT29 colon was above 100 µM throughout.
As for `COc1ccc(OC)c2c1C(=O)C1CC1(Br)C2=O` (centres undefined), the TGI with UACC-257 melanoma, with CCRF-CEM leukemia, with OVCAR-3 ovarian, in the assay with HOP-62 NSCLC, in the assay on SK-OV-3 ovarian and with A549 NSCLC was above 100 µM throughout. For the same compound, the TGI in the assay on SNB-19 CNS, in the assay on HCT-116 colon, with OVCAR-4 ovarian and with HT29 colon was above 100 µM in each case.
Turning to `Cc1c2c(nn1C)CSCc1cc(n(C)n1)CSc1cc(c3ccccc3c1)OCCCc1c(C(=O)O)n(C)c3c-2c(Cl)ccc13`, the GI50 in the assay with UACC-257 melanoma was 4.16 µM; in the assay with CCRF-CEM leukemia, 1.73 µM; in the assay with OVCAR-3 ovarian it was 2.7 µM; in the assay on HOP-62 NSCLC, 4.62 µM; in the assay with SK-OV-3 ovarian, 10.6 µM; with A549 NSCLC, 4.38 µM. Further, the GI50 in the assay on SNB-19 CNS is 3.56 µM; in the assay on HCT-116 colon, 3.53 µM; with OVCAR-4 ovarian, 6.76 µM; in the assay with HT29 colon, 3.32 µM. Also, the TGI came to 16 µM in the assay on UACC-257 melanoma; 10.6 µM in the assay with CCRF-CEM leukemia; 6.82 µM with OVCAR-3 ovarian; 17.3 µM with HOP-62 NSCLC; 22.7 µM in the assay with SK-OV-3 ovarian; 15.6 µM in the assay with A549 NSCLC. Also, the TGI in the assay on SNB-19 CNS was 13.9 µM; with HCT-116 colon, 13 µM; with OVCAR-4 ovarian, 22.9 µM; in the assay with HT29 colon, 12.6 µM.
For `COc1ccc(/C=C\c2cc(OC)c(OC)c(OC)c2)cc1OC`, the GI50 in the assay with UACC-257 melanoma was 6.09 µM; in the assay on CCRF-CEM leukemia it was 0.0791 µM; in the assay with OVCAR-3 ovarian, 0.0543 µM; in the assay with HOP-62 NSCLC it was 0.58 µM; in the assay with SK-OV-3 ovarian, 0.187 µM; in the assay with A549 NSCLC, 0.211 µM. Moreover, the GI50 was 0.32 µM in the assay with SNB-19 CNS, 0.0482 µM in the assay on HCT-116 colon, 11.6 µM in the assay with OVCAR-4 ovarian and 0.043 µM with HT29 colon. Also, the TGI in the assay with UACC-257 melanoma was 40.4 µM and > 100 µM; with OVCAR-3 ovarian it was 0.256 µM and 0.801 µM; in the assay on HOP-62 NSCLC it was 40.4 µM and > 100 µM; with SK-OV-3 ovarian it was above 100 µM; in the assay on A549 NSCLC, 40.4 µM and > 100 µM; with SNB-19 CNS, 40.4 µM and 83.6 µM. Besides, the TGI in the assay on HCT-116 colon is 40.4 µM and 24.4 µM; with OVCAR-4 ovarian, 40.4 µM and > 100 µM; in the assay on HT29 colon, 31.4 µM.
